Read-outs that look alike come from different tables or passages of the source.
Key:
5-HT2A receptor [1] = target: T1, 5-HT2A receptor (Homo sapiens, UniProt P28223); experiment: Radioligand binding assay with [125I]DOI; conditions: competition with [125I]DOI, read-out: DOI Binding Ki (nM) 2A
5-HT2C receptor [2] = target: T2, 5-HT2C receptor (Homo sapiens, UniProt P28335); experiment: Radioligand binding assay with [125I]DOI; conditions: competition with [125I]DOI, membranes of HEK293 cells expressing recombinant 5-HT2C receptors; read-out: DOI Binding Ki (nM) 2C
T2 construct: expressed in transfected cells; host or cells: HEK293
T2 sequence (P28335 33-458): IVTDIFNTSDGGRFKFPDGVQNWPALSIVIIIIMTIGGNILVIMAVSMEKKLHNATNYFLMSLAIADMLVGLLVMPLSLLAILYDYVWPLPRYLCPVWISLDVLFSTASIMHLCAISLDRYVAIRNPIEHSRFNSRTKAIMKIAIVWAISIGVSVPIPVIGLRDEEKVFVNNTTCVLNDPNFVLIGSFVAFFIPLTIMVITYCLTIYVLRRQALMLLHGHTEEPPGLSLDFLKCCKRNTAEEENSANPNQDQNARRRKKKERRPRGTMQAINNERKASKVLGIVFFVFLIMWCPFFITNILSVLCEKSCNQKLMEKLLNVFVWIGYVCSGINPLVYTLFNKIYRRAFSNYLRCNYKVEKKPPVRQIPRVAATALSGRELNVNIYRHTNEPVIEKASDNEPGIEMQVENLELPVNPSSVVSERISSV
Protocol: For the compounds of Table A, the following procedure was used. HEK293 cells stably expressing recombinant 5-HT2C receptors were harvested, suspended in ice-cold phosphate buffered saline, pH 7.4 (PBS), and then centrifuged at 48,000 g for 20 min at 4° C. The resulting cell pellet was then re-suspended in wash buffer containing 20 mM HEPES, pH 7.4 and 0.1 mM EDTA, homogenized on ice using a Brinkman Polytron, and centrifuged (48,000 g for 20 min at 4° C.). The pellet was then resuspended in 20 mM HEPES, pH 7.4, homogenized on ice, and centrifuged (48,000 g for 20 min at 4° C.). Crude membrane pellets were stored at −80° C. until used for radioligand binding assays.
For the compounds of Table A, the following procedure was used. […] Experiments comprised addition of 95 μL of assay buffer (20 mM HEPES, pH 7.4, 10 mM MgCl2), 50 μL of membranes, 50 μL of radioligand stock, and 5 μL of test compound diluted in assay buffer to 96-well microtiter plates, which were then incubated for 1 h at room temperature. Assay incubations were terminated by rapid filtration through PerkinElmer F/C filtration plates under reduced pressure using a 96-well Packard filtration apparatus, followed by washing three times with ice cold assay buffer. Plates were then dried at 45° C. for a minimum of 2 h. Finally, 25 μL of BetaScint™ scintillation cocktail was added to each well and the plates were counted in a Packard TopCount® scintillation counter. In each competition study, test compounds were dosed at ten concentrations with triplicate determinations at each test concentration.

5-HT2B receptor [3] = target: T3, 5-HT2B receptor (Homo sapiens, UniProt P41595); experiment: Radioligand binding assay with [125I]DOI; conditions: competition with [125I]DOI, read-out: DOI Binding Ki (nM) 2B
T3 sequence (P41595 whole entry): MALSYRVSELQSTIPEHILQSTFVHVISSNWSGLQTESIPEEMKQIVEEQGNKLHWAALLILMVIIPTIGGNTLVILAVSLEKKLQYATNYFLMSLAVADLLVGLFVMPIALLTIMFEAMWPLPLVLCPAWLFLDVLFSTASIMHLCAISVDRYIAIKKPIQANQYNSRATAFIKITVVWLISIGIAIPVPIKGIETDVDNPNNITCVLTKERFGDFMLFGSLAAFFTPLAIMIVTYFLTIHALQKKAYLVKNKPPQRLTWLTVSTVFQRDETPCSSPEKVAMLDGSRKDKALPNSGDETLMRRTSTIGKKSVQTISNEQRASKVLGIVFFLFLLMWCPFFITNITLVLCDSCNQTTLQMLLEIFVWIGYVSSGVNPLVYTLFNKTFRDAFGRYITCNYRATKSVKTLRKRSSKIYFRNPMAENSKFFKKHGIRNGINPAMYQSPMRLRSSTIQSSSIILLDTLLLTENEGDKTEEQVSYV

5-HT2B receptor [4] = target: T3, 5-HT2B receptor; experiment: IP accumulation assay; format: cell-based; conditions: [3H]inositol phosphates, read-out: IP Accumulation EC50 (nM) 2B
5-HT2C receptor [5] = target: T2, 5-HT2C receptor; experiment: IP accumulation assay; format: cell-based; conditions: HEK293 cells expressing recombinant 5-HT2C receptors, [3H]inositol phosphates, 2 h at 37° C.
Protocol: HEK293 cells expressing recombinant 5-HT2C receptors were added to sterile poly-D-lysine-coated 96-well microtiter plates (35,000 cells/well) and labeled with 0.6 µCi/well of [^3H]inositol in myoinositol-free DMEM for 18 h. Unincorporated [^3H]inositol was removed by aspiration and replaced with fresh myoinositol-free DMEM supplemented with LiCl (10 mM final) and pargyline (10 μM final). Serially diluted test compounds were then added and incubation was conducted for 2 h at 37° C. Incubations were then terminated by lysing cells with the addition of ice-cold 0.1 M formic acid followed by freezing at −80° C. After thawing, total [^3H]inositol phosphates were resolved from [^3H]inositol using AG1-X8 ion exchange resin (Bio-Rad) and [^3H]inositol phosphates were measured by scintillation counting using a Perkin Elmer TopCount® scintillation counter. All EC50 determinations were performed using 10 different concentrations and triplicate determinations were made at each test concentration.

5-HT2A receptor [6] = target: T1, 5-HT2A receptor; experiment: IP accumulation assay; format: cell-based; conditions: [3H]inositol phosphates, read-out: IP Accumulation EC50 (nM) 2A
[7] = reports that led to withdrawal by the FDA in 1998; cited from earlier work
[8] = 10 mg BID, patients with type 2 diabetes, cited from earlier work
[9] = cited from earlier work
[10] = cited from earlier work; remark: listed apart in the source
[11] = patients without diabetes, cited from earlier work
[12] = pivotal phase 3 program, treated for up to two years
[13] = patients with type 2 diabetes, BELVIQ BID
[14] = patients without type 2 diabetes

T1 sequence (P28223 whole entry): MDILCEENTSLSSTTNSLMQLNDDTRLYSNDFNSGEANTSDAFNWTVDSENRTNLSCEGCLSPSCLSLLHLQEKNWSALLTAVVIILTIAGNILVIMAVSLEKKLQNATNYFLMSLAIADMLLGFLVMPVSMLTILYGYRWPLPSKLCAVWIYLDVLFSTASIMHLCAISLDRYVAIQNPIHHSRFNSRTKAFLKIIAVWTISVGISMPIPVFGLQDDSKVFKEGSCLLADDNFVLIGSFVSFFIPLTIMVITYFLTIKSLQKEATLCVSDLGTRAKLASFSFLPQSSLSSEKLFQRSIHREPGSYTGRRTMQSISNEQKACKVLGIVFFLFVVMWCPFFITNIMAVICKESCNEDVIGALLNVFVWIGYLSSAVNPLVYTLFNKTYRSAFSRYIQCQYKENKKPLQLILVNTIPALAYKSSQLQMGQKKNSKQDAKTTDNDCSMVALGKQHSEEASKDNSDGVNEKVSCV

Brc1ccc2c3c1CCCC3CCNC2 (stereo not shown) [Compound 106, 8-bromo-1,2,3,4,4a,5,6,7-octahydronaphtho[1,8-cd]azepine]
Ki (5-HT2A receptor [1]): 244 nM
Ki (5-HT2C receptor [2]): 105 nM
Ki (5-HT2B receptor [3]): 125 nM

CC1(C)c2cccc3c2C(CCNC3)CC12CC2 (stereo not shown) [Compound 121, 7,7′-dimethyl-2′,3′,4′,4a′,5′,7′-hexahydro-1′H-spiro[cyclopropane-1,6′-naphtho[1,8-cd]azepine]]
Ki (5-HT2A receptor [1]): 423 nM
EC50 (5-HT2B receptor [4]): > 100000 nM
EC50 (5-HT2C receptor [5]): 222 nM
Ki (5-HT2C receptor [2]): 27.6 nM
EC50 (5-HT2A receptor [6]): > 100000 nM
Ki (5-HT2B receptor [3]): 634 nM

CCc1ccc2c3c1C1(CC1)C1(CC1)CC3CCNC2 (stereo not shown) [Compound 101, 8′-ethyl-2′,3′,4′,4a′,5′-pentahydro-1′H-dispiro[cyclopropane-1,6′-cyclopropane-7′,1″- naphtho[1,8-cd]azepine]]
EC50 (5-HT2B receptor [4]): > 100000 nM
EC50 (5-HT2C receptor [5]): 2040 nM
EC50 (5-HT2A receptor [6]): > 100000 nM

CC1(C)CC2CCNCc3ccc(F)c(c32)C12CC2 (stereo not shown) [Compound 119, 8′-fluoro-6′,6′-dimethyl-2′,3′,4′,4a′,5′,6′-hexahydro-1′H-spiro[cyclopropane-1,7′-naphtho[1,8-cd]azepine]]
EC50 (5-HT2B receptor [4]): > 100000 nM
EC50 (5-HT2C receptor [5]): 391 nM
EC50 (5-HT2A receptor [6]): > 100000 nM

c1cc2c3c(c1)C1(CCC1)CCC3CCNC2 (stereo not shown) [Compound 131, 2′,3′,4′,4a′,5′,6′-hexahydro-1′H-spiro[cyclobutane-1,7′-naphtho[1,8-cd]azepine]]
EC50 (5-HT2B receptor [4]): > 100000 nM
EC50 (5-HT2C receptor [5]): 83.5 nM
EC50 (5-HT2A receptor [6]): > 100000 nM

CC1(C)CC2CCNCc3cccc(c32)C12CC2 (stereo not shown) [Compound 102, 6′,6′-dimethyl-2′,3′,4′,4a′,5′,6-hexahydro-1′H-spiro[cyclopropane-1,7′-naphtho[1,8-cd]azepine]]
Ki (5-HT2A receptor [1]): 236 nM
Ki (5-HT2C receptor [2]): 10.3 nM
Ki (5-HT2B receptor [3]): 255 nM

CC1(C)CCC2CCNCc3cccc1c32 (stereo not shown) [Compound 135, 7,7-dimethyl-1,2,3,4,4a,5,6,7-octahydronaphtho[1,8-cd]azepine]
Ki (5-HT2A receptor [1]): 458 nM
Ki (5-HT2C receptor [2]): 69.6 nM
Ki (5-HT2B receptor [3]): 395 nM

c1cc2c3c(c1)C1(CC1)C1(CC1)CC3CCNC2 (stereo not shown) [Compound 130, 2′,3′,4′,4a′,5′-pentahydro-1′H-dispiro[cyclopropane-1,6′-cyclopropane-7′,1″- naphtho[1,8-cd]azepine]]
Ki (5-HT2A receptor [1]): 34.4 nM
EC50 (5-HT2B receptor [4]): 967 nM
EC50 (5-HT2C receptor [5]): 5.21 nM
Ki (5-HT2C receptor [2]): 1.96 nM
EC50 (5-HT2A receptor [6]): 465 nM
Ki (5-HT2B receptor [3]): 75.7 nM

c1cc2c3c(c1)C1(CCC3CCNC2)CC1 (stereo not shown) [Compound 128, 2′,3′,4′,4a′,5′,6′-hexahydro-1′H-spiro[cyclopropane-1,7′-naphtho[1,8-cd]azepine]]
EC50 (5-HT2B receptor [4]): 284 nM
EC50 (5-HT2C receptor [5]): 108 nM
EC50 (5-HT2A receptor [6]): > 100000 nM

CCN[C@@H](C)Cc1cccc(C(F)(F)F)c1 [d-fenfluramine]
share of patients with reported cardiac valve defects [7]: up to one third

C[C@H]1CNCCc2ccc(Cl)cc21 [lorcaserin, (R)-8-chloro-1-methyl-2,3,4,5-tetrahydro-1H-3-benzazepine]
reduction in HbA1c ([8]; placebo 0.4%): 0.9%
reduction in fasting glucose ([8]; placebo 11.9%): 27.4%
share of excess body weight lost ([9]; first phase 3 trial, based on a normal BMI of 25): about one-third
risk of cardiac valvulopathy ([9]; phase 3 program): did not increase the risk of cardiac valvulopathy
proportion of patients that achieved at least 5% weight loss [9, 12]: About two-thirds
proportion of patients that achieved at least 10% weight loss [9, 12]: over one-third
average weight lost as share of their weight ([9]; pivotal phase 3 program): about 8%
average weight loss, top quartile of patients ([9]; second phase 3 trial): 35 pounds
average weight loss, top quartile of patients, of body weight ([9]; second phase 3 trial): 16%
patients who decreased the total daily dose of medications used for treatment of dyslipidemia [10, 13]: 5.5%
patients who increased use of medications used for treatment of dyslipidemia [10, 13]: 3.1%
decrease of mean daily doses of sulfonylureas and thiazolidinediones ([10]; patients with type 2 diabetes, BELVIQ groups): 16-24%
patients who decreased total daily dose of antihypertensive medications ([10]; patients with type 2 diabetes): 8.2%
patients who increased total daily dose of antihypertensive medications ([10]; patients with type 2 diabetes): 6.6%
patients who decreased the total daily dose of medications used for treatment of dyslipidemia [10, 14]: 1.3%
patients who decreased total daily dose of antihypertensive medications [10, 14]: 2.2%
patients who increased total daily dose of antihypertensive medications [10, 14]: 2.2%
patients who increased use of medications used for treatment of dyslipidemia [10, 14]: 2.6%
change of insulin resistance (HOMA-IR) ([11]; one study, placebo −0.2): −0.4
change of fasting insulin ([11]; one study, placebo −1.3 μIU/mL): −3.3 μIU/mL
change of mean fasting glucose ([11]; placebo +0.6 mg/dL): -0.2 mg/dL

Reference: patent publication US11395824B2, “5-HT2C receptor agonists and compositions and methods of use” (Arena Pharmaceuticals, Inc., priority 2015, dated 2022)
